The source of these data is patent publication EP0415598A1, “Cosmetic composition” (UNILEVER PLC, priority 1989, dated 1991).

For the assay, the system named is hair growth. Briefly: Rat Hair Growth Test (topical application to clipped skin, cumulative hair weight). Type of assay: in vivo, male albino Wistar rats. Here is the method: The effect of compounds on hair growth was assessed using male albino Wistar rats as an animal model. The rats were chosen from as few litters as possible and were each approximately 42 days of age at the start of the test. Each rat was housed individually to prevent licking.
In each comparison, 10 rats were used in each group and hair growth was assessed as follows:
A small patch of normal skin (4cm x 4cm) on the upper back of each rat was clipped at the start and 0.3 ml of a hair growth stimulant composition (or a control) applied topically twice daily and once on Saturdays and Sundays to each clipped area. The concentration of test compound in the composition was chosen from 0.01 to 20% by weight.
In any case, this concentration will lie within the range of from 0.01 to 20% by weight as stipulated above.
Hair was clipped from the area of the patch twice weekly, collected and weighed at each time point over a standard period of 3 months, and cumulative hair weight calculated. […] A positive response, i.e. an increase of at least 10% by weight of hair after 3 months treatment, compared with a control indicates the potential of the test compound to prevent hair loss and/or reverse baldness in human subjects.
In this example, the effect of topical application of N-acetyl glycine is shown. […]

As for `CC(=O)NCC(=O)O` [N-acetyl glycine], for the setting “10% (w/v) N-acetyl glycine vs control (distilled water, pH 4.2), after 58 days, statistically significant”, the “increase in hair growth” value amounted to 23%. Also, where the note is “10% (w/v) solution in distilled water adjusted to pH 4.2 with potassium hydroxide, topical, 0.3 ml twice daily, 58 days, control 505.9 ± 103.1, p =0.02 vs control”, the “Mean Cumulative Hair Weight (mg) ± sd, after 58 days” value turned out to be 622.8 ± 101.11 mg.
